# Paper PMC2095803 (Nucleic Acids Research, 2007)
# Tests used:
# [1] = biological target: AmpliTaqFS DNA polymerase (Thermus aquaticus, UniProt P19821, F667Y/G46D); assay: PEP termination assay; type: biochemical, Thermus aquaticus YT-1
# [2] = biological target: T1, Therminator DNA polymerase (Thermococcus sp., UniProt Q56366, A485L/D141A/E143A); assay: PEP termination assay; type: biochemical, Thermococcus species 9ºN-7
# T1 sequence (Q56366 1-775 D141A/E143A/A485L): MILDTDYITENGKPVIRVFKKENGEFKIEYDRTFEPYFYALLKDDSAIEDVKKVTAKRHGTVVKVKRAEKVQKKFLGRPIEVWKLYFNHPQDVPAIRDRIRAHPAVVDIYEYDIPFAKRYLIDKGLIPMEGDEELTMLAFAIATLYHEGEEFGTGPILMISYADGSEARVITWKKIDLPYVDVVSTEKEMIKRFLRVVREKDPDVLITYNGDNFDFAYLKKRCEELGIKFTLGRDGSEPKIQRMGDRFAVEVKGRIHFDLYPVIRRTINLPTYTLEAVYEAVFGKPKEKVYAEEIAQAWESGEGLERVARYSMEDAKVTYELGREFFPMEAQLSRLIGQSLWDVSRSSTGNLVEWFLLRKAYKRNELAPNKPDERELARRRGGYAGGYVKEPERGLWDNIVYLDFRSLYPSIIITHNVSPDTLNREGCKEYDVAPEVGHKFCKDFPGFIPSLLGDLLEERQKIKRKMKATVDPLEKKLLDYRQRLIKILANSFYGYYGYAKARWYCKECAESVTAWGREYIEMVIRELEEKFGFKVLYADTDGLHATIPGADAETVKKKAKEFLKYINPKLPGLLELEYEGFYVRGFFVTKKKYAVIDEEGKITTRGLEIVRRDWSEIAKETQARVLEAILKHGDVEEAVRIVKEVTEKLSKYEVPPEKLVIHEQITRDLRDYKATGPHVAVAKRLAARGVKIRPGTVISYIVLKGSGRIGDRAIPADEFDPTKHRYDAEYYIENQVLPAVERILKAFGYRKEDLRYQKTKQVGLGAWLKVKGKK
# [3] = biological target: T2, DeepVent(exo−) DNA polymerase (Pyrococcus sp. GB-D, UniProt Q51334, D141A/E143A); assay: PEP termination assay; type: biochemical, Pyrococcus species GB-D
# T2 sequence (Q51334 with tags, fused parts or gaps D141A/E143A): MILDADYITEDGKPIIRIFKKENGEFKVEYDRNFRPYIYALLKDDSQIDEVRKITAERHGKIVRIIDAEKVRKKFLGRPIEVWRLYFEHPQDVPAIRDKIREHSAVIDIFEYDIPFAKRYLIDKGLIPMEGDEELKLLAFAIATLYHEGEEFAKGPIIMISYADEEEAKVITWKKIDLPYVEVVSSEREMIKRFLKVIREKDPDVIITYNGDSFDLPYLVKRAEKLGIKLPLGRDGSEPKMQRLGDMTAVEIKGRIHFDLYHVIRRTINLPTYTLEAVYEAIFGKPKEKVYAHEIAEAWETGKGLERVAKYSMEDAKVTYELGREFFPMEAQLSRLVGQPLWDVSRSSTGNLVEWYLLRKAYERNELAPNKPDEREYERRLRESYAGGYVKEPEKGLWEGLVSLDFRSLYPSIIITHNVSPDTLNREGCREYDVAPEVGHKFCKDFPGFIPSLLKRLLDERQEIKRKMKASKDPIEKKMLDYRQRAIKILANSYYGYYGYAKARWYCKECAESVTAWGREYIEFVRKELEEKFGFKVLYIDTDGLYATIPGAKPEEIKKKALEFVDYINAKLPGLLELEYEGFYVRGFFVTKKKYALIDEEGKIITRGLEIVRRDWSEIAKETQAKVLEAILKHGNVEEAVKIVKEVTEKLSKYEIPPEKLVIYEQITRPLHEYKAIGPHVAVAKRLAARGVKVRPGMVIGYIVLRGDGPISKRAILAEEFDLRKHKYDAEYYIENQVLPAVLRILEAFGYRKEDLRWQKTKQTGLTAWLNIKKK
# Bst DNA polymerase = biological target: T3, Bst DNA polymerase (Geobacillus stearothermophilus, UniProt P52026); assay: Five-base CRT sequencing experiment on solid support; type: biochemical, Bacillus stearothermophilus
# T3 sequence (P52026 289-876 limits assumed): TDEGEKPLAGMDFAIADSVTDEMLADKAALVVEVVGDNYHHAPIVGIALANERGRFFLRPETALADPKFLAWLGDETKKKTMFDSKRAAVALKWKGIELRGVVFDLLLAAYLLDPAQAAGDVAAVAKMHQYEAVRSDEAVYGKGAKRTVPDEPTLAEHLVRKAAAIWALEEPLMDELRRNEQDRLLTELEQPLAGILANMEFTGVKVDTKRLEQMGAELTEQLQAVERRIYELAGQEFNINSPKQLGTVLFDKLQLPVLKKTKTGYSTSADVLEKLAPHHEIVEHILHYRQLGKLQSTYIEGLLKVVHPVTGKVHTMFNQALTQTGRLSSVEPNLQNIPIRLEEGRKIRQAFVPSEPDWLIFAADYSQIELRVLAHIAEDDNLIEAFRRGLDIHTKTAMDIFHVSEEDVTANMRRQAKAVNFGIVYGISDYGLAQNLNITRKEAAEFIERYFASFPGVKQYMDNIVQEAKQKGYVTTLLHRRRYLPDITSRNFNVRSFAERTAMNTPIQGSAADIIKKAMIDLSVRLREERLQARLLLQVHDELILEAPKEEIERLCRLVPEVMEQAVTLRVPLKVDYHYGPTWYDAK
# AmpliTaqFS DNA polymerase, sequence (P19821 whole entry G46D/F667Y): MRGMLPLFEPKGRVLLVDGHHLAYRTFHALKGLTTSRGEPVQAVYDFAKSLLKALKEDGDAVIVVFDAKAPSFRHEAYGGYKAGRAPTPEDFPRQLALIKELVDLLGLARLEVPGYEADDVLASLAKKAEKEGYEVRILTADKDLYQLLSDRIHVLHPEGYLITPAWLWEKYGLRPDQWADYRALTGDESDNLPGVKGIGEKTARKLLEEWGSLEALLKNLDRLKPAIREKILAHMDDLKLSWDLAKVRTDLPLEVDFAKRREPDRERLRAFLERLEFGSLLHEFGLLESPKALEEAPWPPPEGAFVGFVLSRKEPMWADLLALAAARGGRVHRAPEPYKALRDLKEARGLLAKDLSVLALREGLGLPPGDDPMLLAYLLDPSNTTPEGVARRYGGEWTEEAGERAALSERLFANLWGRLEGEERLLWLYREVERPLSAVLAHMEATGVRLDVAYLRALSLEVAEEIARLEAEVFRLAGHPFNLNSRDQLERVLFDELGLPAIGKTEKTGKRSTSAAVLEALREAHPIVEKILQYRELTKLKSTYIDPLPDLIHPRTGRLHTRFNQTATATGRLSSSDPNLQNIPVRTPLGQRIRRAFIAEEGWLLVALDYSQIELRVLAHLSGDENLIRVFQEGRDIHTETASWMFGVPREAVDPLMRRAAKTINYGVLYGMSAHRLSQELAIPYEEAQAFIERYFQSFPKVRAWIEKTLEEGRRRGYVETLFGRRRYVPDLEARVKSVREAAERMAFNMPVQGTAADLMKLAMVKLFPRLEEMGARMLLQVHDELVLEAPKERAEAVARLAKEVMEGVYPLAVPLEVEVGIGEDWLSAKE
smiles,measurement,setting,value
"O=[N+]([O-])c1ccccc1CNc1ncnc2c1ncn2[C@H]1C[C@H](O)[C@@H](COP(=O)(O)OP(=O)(O)OP(=O)(O)O)O1 [Compound IIIc, N^6-(2-Nitrobenzyl)-2’-deoxyadenosine-5’-triphosphate]",IC50,[1],350 nM
same,IC50,[2],1.8 nM
same,IC50,[3],11 nM
same,Share of total signal derived from the correct +1 product,Bst DNA polymerase,≥ 80%
same,Estimated signal S,"Bst DNA polymerase; S = (Ceff)^RL, five-base read",68.4%
same,Signal for the correct +1 product (T × C),Bst DNA polymerase; at cycle five,40%
same,Incorporation efficiency (I),"Bst DNA polymerase; first cycle, on a solid support, 250 nM, Bst",98.6%
same,Deprotection efficiency (D),"Bst DNA polymerase; first cycle, on a solid support, 365 nm light",94%
same,Cycle efficiency (Ceff),"Bst DNA polymerase; first cycle, product of I and D, on a solid support",92.7%
